From US20210386781A1, “A GROUP OF CHIMERIC ANTIGEN RECEPTORS (CARS)” (ST. ANNA KINDERKREBSFORSCHUNG, priority 2018, published 2021)

Columns and labels:
A431-fLuc = test: Luciferase-based cytotoxicity assay, stably transduced CAR T cells against A431-fLuc, Example 4; type: cell-based, human; details: T cells without CAR expression; 10 nM
Experimental: Luciferase-expressing tumour cells were co-cultured with CAR T cells at an E:T cell ratio of 2:1 with 10,000 target cells/well in white round-bottom 96 well plates for 4 hours at 37° C. in cytotoxicity assay medium, consisting of phenol-free RPMI, 10% FCS, 1% L-Glutamine and 1% penicillin-streptomycin. Finally, remaining living cells were quantified by determination of the residual luciferase activity of the co-culture. After equilibration to room temperature for 10 minutes, luciferin was added to the cell suspension (150 μg/mL final concentration) and luciferase activity was measured 20 minutes later using the ENSPIRE Multimode plate reader. The percentage of specific lysis was determined with the following formula:
% specific lysis=100−((RLU from well with effector and target cell co-culture)/(RLU from well with target cells only)×100)).
Dimerization of transgenes was induced prior to co-cultivation experiments. Primary T cells were diluted to the final cell concentration in the respective cell culture medium. The homodimerization agent AP20187 was diluted in cell culture medium and was added at 10 nM final concentration. Addition of the respective vehicle control DMSO at the same concentration served as control. Cells were incubated at 37° C. for 30 minutes to ensure efficient dimerization of transgenes and subsequently used for in vitro experiments.

[1] = test system: Jurkat T cells expressing tHER2; test: Luciferase-based cytotoxicity assay, affibody-based CAR T cells against tHER2-expressing Jurkat T cells, Example 8; type: cell-based, human; details: binder fused to 8ser-BB-FKBP(36V)-3z; with or without 10 nM AP20187; E:T 2:1, 4 hours
Experimental: Luciferase-expressing tumour cells were co-cultured with CAR T cells at an E:T cell ratio of 2:1 with 10,000 target cells/well in white round-bottom 96 well plates for 4 hours at 37° C. in cytotoxicity assay medium, consisting of phenol-free RPMI, 10% FCS, 1% L-Glutamine and 1% penicillin-streptomycin. Finally, remaining living cells were quantified by determination of the residual luciferase activity of the co-culture. After equilibration to room temperature for 10 minutes, luciferin was added to the cell suspension (150 μg/mL final concentration) and luciferase activity was measured 20 minutes later using the ENSPIRE Multimode plate reader. The percentage of specific lysis was calculated with the following formula:
Dimerization of transgenes was induced prior to co-cultivation experiments. Primary T cells were diluted to the final cell concentration in the respective cell culture medium. The homodimerization agent AP20187 was diluted in cell culture medium and was added at 10 nM final concentration. Addition of the vehicle control DMSO at the same concentration served as control. Cells were incubated at 37° C. for 30 minutes to ensure efficient dimerization of transgenes and subsequently used for in vitro experiments.

| Compound | effect of the dimerization agent itself on lysis of target cells (A431-fLuc) | capacity to trigger cytotoxicity in presence or absence of AP20187 [1] |
| --- | --- | --- |
| CC[C@H](C(=O)N1CCCC[C@H]1C(=O)O[C@H](CCc1ccc(OC)c(OC)c1)c1cccc(OCC(=O)NCC(CNC(=O)COc2cccc([C@@H](CCc3ccc(OC)c(OC)c3)OC(=O)[C@@H]3CCCCN3C(=O)[C@@H](CC)c3cc(OC)c(OC)c(OC)c3)c2)CN(C)C)c1)c1cc(OC)c(OC)c(OC)c1 [AP20187, reference compound] | no effects on the lysis of target cells |  |
| zHER2-WT: high-affinity anti-HER2 affibody with point mutations N23A and S33K |  | efficient target cell lysis independent of presence of AP20187 |
